Experimental data published in PMC7866087, “Evaluation of Computationally Designed Peptides against TWEAK, a Cytokine of the Tumour Necrosis Factor Ligand Family” (International Journal of Molecular Sciences, 2021).
Values joined by “and” are separate entries in the source; they are usually repeats but may differ in a detail not shown here. Equal values may be shown once.

System: TWEAK-Fn14 signalling pathway, BRV5 cells
Test: Cell-based screening of individual peptides, gene expression microarray in TWEAK-stimulated BRV5 cells
Set-up: species or system human
Conditions: 6 h; for regulation of probe genes by individual peptides: BRV5 + TWEAK 25 ng/mL, peptides 450 µM; for BIRC2 mRNA expression (normalized to NARS2) / HSP90B1 mRNA expression (normalized to NARS2) / IL6 mRNA expression (normalized to NARS2) / JUN mRNA expression (normalized to NARS2) / MAP4K4 mRNA expression (normalized to NARS2) / MAPK14 mRNA expression (normalized to NARS2) / NFKB2 mRNA expression (normalized to NARS2) / TNFRSF12A mRNA expression (normalized to NARS2) / TRAF2 mRNA expression (normalized to NARS2) / BIRC2 expression Z-Score / HSP90B1 expression Z-Score / IL6 expression Z-Score / JUN expression Z-Score / MAP4K4 expression Z-Score / MAPK14 expression Z-Score / NFKB2 expression Z-Score / TNFRSF12A expression Z-Score / TRAF2 expression Z-Score: individual peptides, BRV5 + TWEAK; for BIRC2 mRNA expression (normalized to NARS2) / HSP90B1 mRNA expression (normalized to NARS2) / IL6 mRNA expression (normalized to NARS2) / JUN mRNA expression (normalized to NARS2) / MAP4K4 mRNA expression (normalized to NARS2) / MAPK14 mRNA expression (normalized to NARS2) / NFKB2 mRNA expression (normalized to NARS2) / TNFRSF12A mRNA expression (normalized to NARS2) / TRAF2 mRNA expression (normalized to NARS2): 450 µM; for BIRC2 expression Z-Score / HSP90B1 expression Z-Score / IL6 expression Z-Score / JUN expression Z-Score / MAP4K4 expression Z-Score / MAPK14 expression Z-Score / NFKB2 expression Z-Score / TNFRSF12A expression Z-Score / TRAF2 expression Z-Score: normalized to NARS2
Excerpt: Pool 1 and 5 were therefore deconstructed to assess the effect of individual peptides and their activity on same cell-based screening. Pools 1 and 5 were composed of peptides 45, 46, 42, 3, 49, 11, and 13; and of peptides 1, 9, 30, 35, 41, 43, 7, and 14, respectively. As before, and shown in Figure 4B, the level of expression of probe genes on TWEAK-stimulated (T) BRV5 cells is overall higher than on non-stimulated (NT) one. […] The structural model of peptides 43, 30, 35 and 49 bound to TWEAK can be seen in Figure 5 and Supplementary Materials Figures S4–S6, respectively.
Three different cell lines were used in this study: BRV5, MDA-MB 435 (435-P), and HT29. The BRV5 is a highly metastatic brain cell line, obtained in one of our laboratories by primary culture from a brain of a nude mouse inoculated with human 435-Br1 brain metastatic cells, as previously described and used as a model to test the peptides in cell cultures. […] The triple negative 435-P cell line is a useful human breast cancer model that expresses both epithelial and melanocytic markers, and was included as the parental cell from which 435-Br1 metastatic variant was initially originated (both cell lines kindly provided by Dr Fabra at IDIBELL Institute, Hospitalet de Llobregat, Spain). Finally, HT29 human colon carcinoma cells obtained from the European Type Culture Collection (ECACC 91072201) were used as a positive control of TWEAK dependent Fn14 over-expressing cells to evaluate TWEAK-Fn14 axis of brain metastatic variants.
Appropriate cell culture conditions were established as the controls needed in the expression of genes with and without peptides and with and without TWEAK activation, both as pools and individually (see Supplementary Materials Figure S2). The protocol started with the seeding of 125,000 cells/well in 500 µL of culture media supplemented with 10% fetal bovine serum (CM+FBS10%) in 24-well dishes for 24 h before removing FBS (CM-FBS). After overnight starvation in CM-FBS culture, different peptide treatment conditions (at final concentration of 450 µM) were established in the presence or absence of TWEAK (25 ng/mL final concentration) (Peprotech EC, Ltd., London, UK). Some cells were treated with peptides at a single, unique, initial dose (time 0) while other were treated with repeated doses to account for the effect cell-culture degradation. These include a repeated treatment every hour (i.e., […]), every two hours (time 0, 2, and 4) and every three hours (time 0 and 3)—see Supplementary Materials Figure S2 for diagrammatic depiction. At time 6 (after six hours) cells were lysed and RNA extracted for transcriptomic analyses (see next). Cell were culture for six hours as this was the time needed to achieve the highest upregulation of the TWEAK-Fn14 axis upon TWEAK treatment as shown in previous time-course RT-PCR experiments (see Figure 2).
RNA from cells was extracted 6 h after treatments by direct lysis on the well. The RNeasy Micro kit (Qiagen, Hilden, Germany) was used to isolate total RNA from cell lysate following manufacturer’s protocols including an additional step of digestion with DNase I (Qiagen, Hilden, Germany). Total RNA concentration was measured in a NanoDrop 1000 spectrophotometer (Thermo Scientific, Waltham, MA, USA). The RNA extracted from treated and untreated cells (see above) was used as a proxy for gene expression.
The quantitative RT-PCR was performed using Fluidigm Dynamic Array FlexSix array with the specific primers for gene expression (Delta Genes Assays, Wet lab tested on Dynamic Array IFC) designed to RefSeq for detection by pPCR EvaGreen assay (Dynamic Array FlexSix, Fluidigm Corporation). Each Flex Six IFC has a total of six independent partitions. Each partition has a 12 × 12 format (12 assay inlets and 12 sample inlets) and will be run independently as a separate experimental run. […]

Substance | BIRC2 mRNA expression (normalized to NARS2) (mean of replicate columns) | HSP90B1 mRNA expression (normalized to NARS2) (mean of replicate columns) | IL6 mRNA expression (normalized to NARS2) (mean of replicate columns) | JUN mRNA expression (normalized to NARS2) (mean of replicate columns) | MAP4K4 mRNA expression (normalized to NARS2) (mean of replicate columns) | MAPK14 mRNA expression (normalized to NARS2) (mean of replicate columns) | NFKB2 mRNA expression (normalized to NARS2) (mean of replicate columns) | TNFRSF12A mRNA expression (normalized to NARS2) (mean of replicate columns) | TRAF2 mRNA expression (normalized to NARS2) (mean of replicate columns) | BIRC2 mRNA expression (normalized to NARS2) (replicate column 1) | HSP90B1 mRNA expression (normalized to NARS2) (replicate column 1) | IL6 mRNA expression (normalized to NARS2) (replicate column 1) | JUN mRNA expression (normalized to NARS2) (replicate column 1) | MAP4K4 mRNA expression (normalized to NARS2) (replicate column 1) | MAPK14 mRNA expression (normalized to NARS2) (replicate column 1) | NFKB2 mRNA expression (normalized to NARS2) (replicate column 1) | TNFRSF12A mRNA expression (normalized to NARS2) (replicate column 1) | TRAF2 mRNA expression (normalized to NARS2) (replicate column 1) | BIRC2 mRNA expression (normalized to NARS2) (replicate column 2) | HSP90B1 mRNA expression (normalized to NARS2) (replicate column 2) | further results
11: SGVAYQETT [Peptide 11] | 0.6438 | 2.54 | 0.001558 | 0.1006 | 0.1986 | 0.2184 | 0.047 | 0.01869 | 0.01037 | 0.6157 | 2.376 | 0.001178 | 0.09818 | 0.2001 | 0.2179 | 0.04834 | 0.01871 | 0.01036 | 0.6719 | 2.704 | regulation of probe genes by individual peptides: induced a higher level of expression of the gene; IL6 mRNA expression (normalized to NARS2) (replicate column 2): 0.001938; JUN mRNA expression (normalized to NARS2) (replicate column 2): 0.1029; MAP4K4 mRNA expression (normalized to NARS2) (replicate column 2): 0.1972; MAPK14 mRNA expression (normalized to NARS2) (replicate column 2): 0.219; NFKB2 mRNA expression (normalized to NARS2) (replicate column 2): 0.04567; TNFRSF12A mRNA expression (normalized to NARS2) (replicate column 2): 0.01867; TRAF2 mRNA expression (normalized to NARS2) (replicate column 2): 0.01038; BIRC2 expression Z-Score (listed as P11): 0.5906; HSP90B1 expression Z-Score (listed as P11): 0.5337; IL6 expression Z-Score (listed as P11): -0.2862; JUN expression Z-Score (listed as P11): 0.0366 and 0.03662; MAP4K4 expression Z-Score (listed as P11): 0.3403; MAPK14 expression Z-Score (listed as P11): 0.3151; NFKB2 expression Z-Score (listed as P11): 0.622; TNFRSF12A expression Z-Score (listed as P11): -0.2085; TRAF2 expression Z-Score (listed as P11): -0.4411
13: YSGYFGGFY [Peptide 13] | 0.4307 | 2.183 | 0.005226 | 0.4257 | 0.2531 | 0.2388 | 0.05228 | 0.02853 | 0.02474 | 0.4177 | 2.2352 | 0.005457 | 0.419 | 0.2593 | 0.2431 | 0.05087 | 0.02856 | 0.02503 | 0.4436 | 2.131 | regulation of probe genes by individual peptides: to some extent, 13 induced a higher level of expression of the gene; IL6 mRNA expression (normalized to NARS2) (replicate column 2): 0.004995; JUN mRNA expression (normalized to NARS2) (replicate column 2): 0.4325; MAP4K4 mRNA expression (normalized to NARS2) (replicate column 2): 0.2468; MAPK14 mRNA expression (normalized to NARS2) (replicate column 2): 0.2344; NFKB2 mRNA expression (normalized to NARS2) (replicate column 2): 0.05368; TNFRSF12A mRNA expression (normalized to NARS2) (replicate column 2): 0.0285; TRAF2 mRNA expression (normalized to NARS2) (replicate column 2): 0.02446; BIRC2 expression Z-Score (listed as P13): -0.8852; HSP90B1 expression Z-Score (listed as P13): -0.101; IL6 expression Z-Score (listed as P13): 2.8881 and 2.888; JUN expression Z-Score (listed as P13): 3.7769 and 3.777; MAP4K4 expression Z-Score (listed as P13): 1.699; MAPK14 expression Z-Score (listed as P13): 0.6701; NFKB2 expression Z-Score (listed as P13): 1.124; TNFRSF12A expression Z-Score (listed as P13): 0.91; TRAF2 expression Z-Score (listed as P13): 0.255
46: TGYAENV [Peptide 46] | 0.5415 | 2.314 | 0.00187 | 0.08801 | 0.2105 | 0.2302 | 0.05417 | 0.01829 | 0.01616 | 0.5372 | 2.32 | 0.00168 | 0.08305 | 0.1965 | 0.2456 | 0.05593 | 0.0189 | 0.01641 | 0.5458 | 2.3087 | IL6 mRNA expression (normalized to NARS2) (replicate column 2): 0.002059; JUN mRNA expression (normalized to NARS2) (replicate column 2): 0.09296; MAP4K4 mRNA expression (normalized to NARS2) (replicate column 2): 0.2245; MAPK14 mRNA expression (normalized to NARS2) (replicate column 2): 0.2147; NFKB2 mRNA expression (normalized to NARS2) (replicate column 2): 0.05241; TNFRSF12A mRNA expression (normalized to NARS2) (replicate column 2): 0.01767; TRAF2 mRNA expression (normalized to NARS2) (replicate column 2): 0.01592; BIRC2 expression Z-Score (listed as P46): -0.118; HSP90B1 expression Z-Score (listed as P46): 0.1322; IL6 expression Z-Score (listed as P46): -0.0166 and -0.01658; JUN expression Z-Score (listed as P46): -0.1078; MAP4K4 expression Z-Score (listed as P46): 0.6365; MAPK14 expression Z-Score (listed as P46): 0.5199; NFKB2 expression Z-Score (listed as P46): 1.3042 and 1.304; TNFRSF12A expression Z-Score (listed as P46): -0.2543; TRAF2 expression Z-Score (listed as P46): -0.1604
SGVSTAQLD [Peptide 4] | 0.6267 | 2.423 | 0.001966 | 0.1025 | 0.2128 | 0.1993 | 0.04458 | 0.01499 | 0.01397 | 0.6069 | 2.308 | 0.001514 | 0.09341 | 0.1972 | 0.1927 | 0.04237 | 0.01676 | 0.01481 | 0.6465 | 2.538 | regulation of probe genes by individual peptides: induced a higher level of expression of the gene; IL6 mRNA expression (normalized to NARS2) (replicate column 2): 0.002418; JUN mRNA expression (normalized to NARS2) (replicate column 2): 0.1116; MAP4K4 mRNA expression (normalized to NARS2) (replicate column 2): 0.2284; MAPK14 mRNA expression (normalized to NARS2) (replicate column 2): 0.2059; NFKB2 mRNA expression (normalized to NARS2) (replicate column 2): 0.04678; TNFRSF12A mRNA expression (normalized to NARS2) (replicate column 2): 0.01322; TRAF2 mRNA expression (normalized to NARS2) (replicate column 2): 0.01313; BIRC2 expression Z-Score (listed as P4): 0.4721; HSP90B1 expression Z-Score (listed as P4): 0.3256; IL6 expression Z-Score (listed as P4): 0.0669 and 0.06688; JUN expression Z-Score (listed as P4): 0.0589 and 0.05892; MAP4K4 expression Z-Score (listed as P4): 0.6937; MAPK14 expression Z-Score (listed as P4): -0.0192 and -0.01918; NFKB2 expression Z-Score (listed as P4): 0.3908; TNFRSF12A expression Z-Score (listed as P4): -0.6289; TRAF2 expression Z-Score (listed as P4): -0.2666
